Structures can show the parent of a compound that is named as a salt. Where two headings read alike, the source gives them in different places.

The experiment concerns human neurons. The experiment can be described thus: Iron (FeSO4) mediated neurotoxicity screening, MAP-2 positive neurons counted. The format is cell-based. The conditions noted are these: for viability at 10 µM: Homo sapiens, Neuron, read-out: Drug % control (mean): number of neurons normalized to untreated control. On the procedure:
Human neurons were isolated from brain tissues of therapeutically aborted 15-20 week old fetuses, in accordance with ethics approval of the University of Calgary ethics committee, after written informed consent of the pregnant donors. Neurons were isolated as previously described (Vecil et al., 2000) brain specimens were washed in phosphate buffered saline (PBS) to remove blood, followed by removal of meninges. […] Thereafter, the digestion was stopped by addition of 4 ml fetal calf serum (FCS). […] Cells were cultured in feeding medium of minimal essential medium (MEM) supplemented with 10% fetal bovine serum (FBS), 1 μM sodium pyruvate, 10 μM glutamine, 1× non-essential amino acids, 0.1% dextrose and 1% penicillin/streptomycin (all culture supplements from Invitrogen, Burlington, Canada). […] For experiments, the neuron-enriched cultures were retrypsinized and cells were plated in poly-L-ornithine pre-coated 96-well plates at a density of 100,000 cells/well in 100 μl of the complete medium supplemented with cytosine arabinoside. […] All conditions were performed in quadruplicates. A day later cells were fixed using 4% paraformaldehyde (PFA) and stored in PBS in 4° C.
Briefly, there were 80 compounds located in specific wells on each plate (e. g. B07). […] Each compound was supplied at a concentration of 10 mM dissolved in DMSO.
After filtering with a 0.2 μm filter, FeSO4 was added to cells in a final concentration of 25-50 μM in a volume of 50 μl medium to the cells. Rotenone was dissolved in dimethyl sulfoxide (DMSO) and used in a final concentration of 10 μM.
Staining was performed at room temperature. A blocking buffer was first introduced for 1 h followed by incubation with primary antibody overnight in 4° C.
Cell nuclei were stained with Hoechst S769121 (nuclear yellow). Cells were stored in 4° C. in the dark before imaging.
Images were taken using the automated ImageXpress® imaging system (Molecular Devices, Sunnyvale, Calif.) through a 10x objective microscope lens, displaying 4 or 9 sites per well. […] Cells were defined according to fluorescence intensity and size at different wavelengths. Data from all sites per well were averaged to one data point.
Neurons were pre-incubated with each compound for 1 h followed by application of FeSO4.

The mark [1] stands for this setting: drug 10 μM 1 h before FeSO4 25 or 50 μM, MAP-2 neurons after 24 h.

With `S=c1nc[nH]c2nc[nH]c12` [MERCAPTOPURINE], under setting [1], the viability at 10 µM came to 1.73%. As to `CN(C)CCC=C1c2ccccc2CCc2ccccc21` [AMITRIPTYLINE HYDROCHLORIDE], the viability at 10 µM under setting [1] turned out to be 34.8%. Same read-out and setting: for `CN1CCN(CCCN2c3ccccc3Sc3ccc(C(F)(F)F)cc32)CC1` [TRIFLUOPERAZINE HYDROCHLORIDE] the value was 4.42%; for `COC(=O)[C@@H]1[C@H]2C[C@H]3c4[nH]c5ccccc5c4CCN3C[C@@H]2CC[C@@H]1O` [YOHIMBINE HYDROCHLORIDE], 100%; for `O=C(c1ccccc1)c1ccc2n1CCC2C(=O)O` (stereo not drawn) [KETOROLAC TROMETHAMINE], 52.4%. The same measure, in the same setting: for `Cn1cnc([N+](=O)[O-])c1Sc1ncnc2nc[nH]c12` [AZATHIOPRINE] the value was 4.65%; for `CC(CCc1ccccc1)NC(C)C(O)c1ccc(O)cc1` (stereo not drawn) [NYLIDRIN HYDROCHLORIDE], 50.1%; for `NC(=O)c1cnccn1` [PYRAZINAMIDE], 67.2%.

Regarding `COc1ccc2c(c1)c(CC(=O)O)c(C)n2C(=O)c1ccc(Cl)cc1` [INDOMETHACIN], the viability at 10 µM under setting [1] was determined as 4.52%. Same read-out and setting: in the case of `CS(=O)(=O)OCCCCOS(C)(=O)=O` [BUSULFAN] it was 13.3%; in that of `C[N+](C)(C)CCOC(N)=O` [CARBACHOL], 8.87%; in that of `COc1c2occc2cc2ccc(=O)oc12` [METHOXSALEN], 59%.

As for `O=C1CC[C@@]2(O)[C@H]3Cc4ccc(O)c5c4[C@@]2(CCN3CC2CC2)[C@H]1O5` [NALTREXONE HYDROCHLORIDE], the viability at 10 µM under setting [1] stood at 39.5%. The same measure, in the same setting: for `CCOC(=O)C1=C(COCCN)NC(C)=C(C(=O)OC)C1c1ccccc1Cl` (stereo not drawn) [AMLODIPINE BESYLATE] the value was 93.1%; for `O=C1C(CC[S+]([O-])c2ccccc2)C(=O)N(c2ccccc2)N1c1ccccc1` (stereo not drawn) [SULFINPYRAZONE], 46.5%. Consider `O=C(O)c1cn(C2CC2)c2cc(N3CCNCC3)c(F)cc2c1=O` [CIPROFLOXACIN], for which the viability at 10 µM (24 h) was found to be 41%. For the compound `O=C1CN(/N=C/c2ccc([N+](=O)[O-])o2)C(=O)N1` [NITROFURANTOIN], the viability at 10 µM under setting [1] is 17.8%. `CC(C)C[C@H](CN)CC(=O)O` [PREGABALIN]: the viability at 10 µM (24 h) amounted to 47.8%. With `NS(=O)(=O)c1cc2c(cc1Cl)NCNS2(=O)=O` [HYDROCHLOROTHIAZIDE], the viability at 10 µM under setting [1] is 2.55%. Take `CCN(CC)CCNC(=O)c1ccc(N)cc1` [PROCAINAMIDE HYDROCHLORIDE]: under setting [1], the viability at 10 µM is 64.3%. For the compound `COc1cc2c(c(OC)c1OC)-c1ccc(OC)c(=O)cc1[C@@H](NC(C)=O)CC2` [COLCHICINE], the viability at 10 µM (24 h) worked out at 3.12%. In the case of `O=C(O)c1cc2cc(Cl)ccc2[nH]1` [5-CHLOROINDOLE-2-CARBOXYLIC ACID], the viability at 10 µM under setting [1] was 37.3%. On to `CCCc1nc(C(C)(C)O)c(C(=O)OCc2oc(=O)oc2C)n1Cc1ccc(-c2ccccc2-c2nnn[nH]2)cc1` [OLIVEESARTAN MEDOXOMIL], for which the “Drug % control (mean): number of neurons normalized to untreated control” value under setting [1] is 55.85%.

For `O=c1n(CCCN2CCN(c3cccc(Cl)c3)CC2)nc2ccccn12` [TRAZODONE HYDROCHLORIDE], under setting [1], the viability at 10 µM came to 25.9%. Still for that read-out and setting: for `CC1(C)S[C@@H]2[C@H](NC(=O)[C@H](N)c3ccc(O)cc3)C(=O)N2[C@H]1C(=O)O` [AMOXICILLIN] the value was 6.41%; for `O=C1[C@H](CC[C@H](O)c2ccc(F)cc2)[C@@H](c2ccc(O)cc2)N1c1ccc(F)cc1` [EZETIMIBE], 50.5%; for `CC1(C)NC(=O)N(c2ccc([N+](=O)[O-])c(C(F)(F)F)c2)C1=O` [NILUTAMIDE], 48.7%. In the case of `C[C@@H]1O[C@@H]1P(=O)(O)O` [FOSFOMYCIN], the viability at 10 µM under setting [1] amounted to 31.2%. Same read-out and setting: for `CC(C)N(CCC(C(N)=O)(c1ccccc1)c1ccccn1)C(C)C` (stereo not drawn) [DISOPYRAMIDE PHOSPHATE] the value was 4.63%. The same measure, in the same setting: for `CN1CCC(=C2c3ccccc3CC(=O)c3sccc32)CC1` [KETOTIFEN FUMARATE] the value was 1.77%.

Consider `N=C(N)NC(=O)c1nc(Cl)c(N)nc1N` [AMILORIDE HYDROCHLORIDE], for which the viability at 10 µM under setting [1] is 37.1%. With `CC[N+](C)(C)c1cccc(O)c1` [EDROPHONIUM CHLORIDE], the viability at 10 µM under setting [1] was 44%. On the same count and under the same terms, for `CCOC(=O)[C@H](CCc1ccccc1)N[C@@H](C)C(=O)N1CCC[C@H]1C(=O)O` [ENALAPRIL MALEATE] the value was 41%. As for `CC(NC(C)(C)C)C(=O)c1cccc(Cl)c1` (stereo not drawn) [BUPROPION], the viability at 10 µM under setting [1] is 55.5%. On the same count and under the same terms, for `CCCC1O[C@@H]2C[C@H]3[C@@H]4CCC5=CC(=O)C=C[C@]5(C)[C@H]4[C@@H](O)C[C@]3(C)[C@]2(C(=O)CO)O1` (stereo partly drawn) [BUDESONIDE] the value was 70%; for `Cc1ncc([N+](=O)[O-])n1CCO` [METRONIDAZOLE], 27.1%. Still for that read-out and setting: for `C#C[C@]1(O)CC[C@H]2[C@@H]3CCC4=Cc5oncc5C[C@]4(C)[C@H]3CC[C@@]21C` [DANAZOL] the value was 4.37%.

As for `CC(C[N+](C)(C)C)OC(N)=O` (stereo not drawn) [BETHANECHOL CHLORIDE], the viability at 10 µM under setting [1] stood at 16%. The same measure, in the same setting: for `OCCOCCN1CCN(C(c2ccccc2)c2ccc(Cl)cc2)CC1` (stereo not drawn) [HYDROXYZINE PAMOATE] the value was 4.01%. As to `CN[C@@H](C)[C@@H](O)c1ccccc1` [PSEUDOEPHEDRINE HYDROCHLORIDE], under setting [1], the viability at 10 µM is 26.7%. Same read-out and setting: for `CN1C(C(=O)Nc2ccccn2)=C(O)c2ccccc2S1(=O)=O` [PIROXICAM] the value was 36.2%; for `CN1CCC[C@@H]1CCO[C@](C)(c1ccccc1)c1ccc(Cl)cc1` [CLEMASTINE], 6.19%. Still for that read-out and setting: for `CCCCNc1cc(C(=O)O)cc(S(N)(=O)=O)c1Oc1ccccc1` [BUMETANIDE] the value was 29.4%; for `CCN(CC)CCNC(=O)c1cc(Cl)c(N)cc1OC` [METOCLOPRAMIDE HYDROCHLORIDE], 37.9%. On the same count and under the same terms, for `Cc1cc(N)c2ccccc2[n+]1CCCCCCCCCC[n+]1c(C)cc(N)c2ccccc21` [DEQUALINIUM CHLORIDE] the value was 10.5%.

For the compound `CC(C)(C)NC[C@H](O)COc1nsnc1N1CCOCC1` [TIMOLOL MALEATE], under setting [1], the viability at 10 µM stood at 11.1%.

Consider `CCCCCCCCCCC[C@@H](C[C@@H]1OC(=O)[C@H]1CCCCCC)OC(=O)[C@H](CC(C)C)NC=O` [ORLISTAT], for which, under setting [1], the viability at 10 µM came to 1%. Regarding `CC[C@H]1OC(=O)[C@H](C)[C@@H](O[C@H]2C[C@@](C)(OC)[C@@H](O)[C@H](C)O2)[C@H](C)[C@@H](O[C@@H]2O[C@H](C)C[C@H](N(C)C)[C@H]2O)[C@](C)(O)C[C@@H](C)CN(C)[C@H](C)[C@@H](O)[C@]1(C)O` [AZITHROMYCIN], under setting [1], the viability at 10 µM is 56.8%. The same measure, in the same setting: for `Nc1ccc(C(=O)O)cc1` [POTASSIUM p-AMINOBENZOATE] the value was 44.5%. The same measure, in the same setting: in the case of `CC[C@H]1OC(=O)[C@H](C)[C@@H](O[C@H]2C[C@@](C)(OC)[C@@H](O)[C@H](C)O2)[C@H](C)[C@@H](O[C@@H]2O[C@H](C)C[C@H](N(C)C)[C@H]2O)[C@](C)(OC)C[C@@H](C)C(=O)[C@H](C)[C@@H](O)[C@]1(C)O` [CLARITHROMYCIN] it was 55.1%; in that of `NC(=O)N1c2ccccc2C=Cc2ccccc21` [CARBAMAZEPINE], 13.3%. As for `Cn1c(=O)c2[nH]cnc2n(C)c1=O` [THEOPHYLLINE], the viability at 10 µM (24 h) is 23.3%. With `CC(C)[N+]1(C)[C@@H]2CC[C@H]1CC(OC(=O)C(CO)c1ccccc1)C2.[Br-]` (stereo partly drawn) [IPRATROPIUM BROMIDE], the “Drug % control (mean): number of neurons normalized to untreated control” value came to 63.39%.

As to `CCC[C@H](N[C@@H](C)C(=O)N1[C@H](C(=O)O)C[C@@H]2CCCC[C@@H]21)C(=O)OCC` [PERINDOPRIL ERBUMINE], under setting [1], the viability at 10 µM came to 49.4%. Consider `CN(C)CCOC(c1ccccc1)c1ccccc1.Cn1c(=O)c2[nH]c(Cl)nc2n(C)c1=O` [DIMENHYDRINATE], for which, under setting [1], the “Drug % control (mean): number of neurons normalized to untreated control” value is 36.53%. With `Nc1ccc(S(=O)(=O)c2ccc(N)cc2)cc1` [DAPSONE], the viability at 10 µM under setting [1] was 18.6%. Same read-out and setting: for `COc1ccc(C(CN(C)C)C2(O)CCCCC2)cc1` (stereo not drawn) [VENLAFAXINE] the value was 72.5%; for `CN1CCC(OC(c2ccccc2)c2ccccc2)CC1` [HYDROCHLORIDE], 4.61%. On the same count and under the same terms, in the case of `CC1(C)O[C@@H]2[C@@H](CO[C@@]3(COS(N)(=O)=O)OC(C)(C)O[C@@H]23)O1` [TOPIRAMATE] it was 46.1%; in that of `Cc1onc(-c2ccccc2Cl)c1C(=O)N[C@@H]1C(=O)N2[C@@H]1SC(C)(C)[C@@H]2C(=O)O` [CLOXACILLIN SODIUM], 28.4%.
